# Results reported in patent US20250270213A1, “PI3Ka INHIBITORS” (Synnovation Therapeutics, Inc., priority 2022, published 2025).
# pIC50: −log10 of the molar value.
# Test system: T47D (PIK3CA H1047R) cells
# Test: pS473 AKT assay with 2.5% FBS, T47D cells
# Type: cell-based
# Settings: Homo sapiens, pSer473 AKT, DMEM with 2.5% FBS, 2 h treatment, read-out: T47D_IC50
# Procedure, shortened: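 T47D (PIK3CA H1047R) cells were switched to DMEM with 2.5% FBS and exposed to compounds for 2 h. After paraformaldehyde fixation, pSer473 AKT was detected by in-cell ELISA (rabbit primary, HRP anti-rabbit secondary, chemiluminescence); IC50 values were fitted from the concentration series.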
row,SMILES,pIC50
1,"CCn1c(=O)c2cc(Cl)cc(C(C)Nc3ccccc3C(=O)O)c2n2cncc12 (centres unmarked) [Compound I-12, 2-((1-(7-Chloro-4-ethyl-5-oxo-4,5-dihydroimidazo[1,5-a]quinazolin-9-yl)ethyl)amino)benzoic acid]",> 6.00
2,"CCc1ncn2c3c(C(C)Nc4ccccc4C(=O)O)cc(Cl)cc3c(=O)n(CC)c12 (centres unmarked) [Compound I-13, 2-((1-(7-Chloro-3,4-diethyl-5-oxo-4,5-dihydroimidazo[1,5-a]quinazolin-9-yl)ethyl)amino)benzoic acid]",> 6.00
3,"Cc1cc(C(C)Nc2ccccc2C(=O)O)c2c(c1)c(=O)n(C)c1nccn21 (centres unmarked) [Compound I-14, 2-((1-(4,7-Dimethyl-5-oxo-4,5-dihydroimidazo[1,2-a]quinazolin-9-yl)ethyl)amino)benzoic acid]",> 6.00
4,"Cc1cc(C(C)Nc2ccccc2C(=O)O)c2c(c1)c(=O)n(C)c1ncnn21 (centres unmarked) [Compound I-15, 2-((1-(4,7-Dimethyl-5-oxo-4,5-dihydro-[1,2,4]triazolo[1,5-a]quinazolin-9-yl)ethyl)amino)benzoic acid]",> 6.00
5,"Cc1cc(C(C)Nc2ccccc2C(=O)O)c2c(c1)c(=O)n(C)c1c2cnn1C (centres unmarked) [Compound I-16, 2-((1-(3,4,7-Trimethyl-5-oxo-4,5-dihydro-3H-pyrazolo[3,4-c]isoquinolin-9-yl)ethyl)amino)benzoic acid]",> 6.00
6,"Cc1cc(C(C)Nc2ccc(Cl)nc2C(=O)O)c2c(c1)c(=O)n(C)c1c2cnn1C (centres unmarked) [Compound I-17, 6-Chloro-3-((1-(3,4,7-trimethyl-5-oxo-4,5-dihydro-3H-pyrazolo[3,4-c]isoquinolin-9-yl)ethyl)amino)picolinic acid]",> 6.00
7,"CCn1ncc2c3c(C(C)Nc4ccccc4C(=O)O)cc(C)cc3c(=O)n(C)c21 (centres unmarked) [Compound I-18, 2-((1-(3-Ethyl-4,7-dimethyl-5-oxo-4,5-dihydro-3H-pyrazolo[3,4-c]isoquinolin-9-yl)ethyl)amino)benzoic acid]",> 6.00
8,"CCn1ncc2c3c(C(C)Nc4ccc(Cl)nc4C(=O)O)cc(C)cc3c(=O)n(C)c21 (centres unmarked) [Compound I-19, 6-Chloro-3-((1-(3-ethyl-4,7-dimethyl-5-oxo-4,5-dihydro-3H-pyrazolo[3,4-c]isoquinolin-9-yl)ethyl)amino)picolinic acid]",> 6.00
9,"CCn1ncc2c3c(C(C)Nc4ccc(C)nc4C(=O)O)cc(C)cc3c(=O)n(C)c21 (centres unmarked) [Compound I-20, 3-((1-(3-Ethyl-4,7-dimethyl-5-oxo-4,5-dihydro-3H-pyrazolo[3,4-c]isoquinolin-9-yl)ethyl)amino)-6-methylpicolinic acid]",> 6.00
10,"CCn1c(=O)c2cc(C)cc(C(C)Nc3ccccc3C(=O)O)c2c2cnn(C)c21 (centres unmarked) [Compound I-21, 2-((1-(4-Ethyl-3,7-dimethyl-5-oxo-4,5-dihydro-3H-pyrazolo[3,4-c]isoquinolin-9-yl)ethyl)amino)benzoic acid]",> 6.00
11,"CCn1c(=O)c2cc(C)cc(C(C)Nc3ccc(Cl)nc3C(=O)O)c2c2cnn(C)c21 (centres unmarked) [Compound I-22, 6-Chloro-3-((1-(4-ethyl-3,7-dimethyl-5-oxo-4,5-dihydro-3H-pyrazolo[3,4-c]isoquinolin-9-yl)ethyl)amino)picolinic acid]",> 6.00
12,"CCn1ncc2c3c(C(C)Nc4ccccc4C(=O)O)cc(C)cc3c(=O)n(CC)c21 (centres unmarked) [Compound I-23, 2-((1-(3,4-Diethyl-7-methyl-5-oxo-4,5-dihydro-3H-pyrazolo[3,4-c]isoquinolin-9-yl)ethyl)amino)benzoic acid]",> 6.00
13,"CCn1ncc2c3c(C(C)Nc4ccc(F)cc4C(=O)O)cc(C)cc3c(=O)n(CC)c21 (centres unmarked) [Compound I-24, 2-((1-(3,4-Diethyl-7-methyl-5-oxo-4,5-dihydro-3H-pyrazolo[3,4-c]isoquinolin-9-yl)ethyl)amino)-5-fluorobenzoic acid]",> 6.00
14,"CCn1ncc2c3c(C(C)Nc4ccc(C)nc4C(=O)O)cc(C)cc3c(=O)n(CC)c21 (centres unmarked) [Compound I-25, 3-((1-(3,4-Diethyl-7-methyl-5-oxo-4,5-dihydro-3H-pyrazolo[3,4-c]isoquinolin-9-yl)ethyl)amino)-6-methylpicolinic acid]",> 6.00
15,"CCCn1cc2c3c(C(C)Nc4ccccc4C(=O)O)cc(C)cc3c(=O)n(C)c2n1 (centres unmarked) [Compound I-26, 2-((1-(4,7-Dimethyl-5-oxo-2-propyl-4,5-dihydro-2H-pyrazolo[3,4-c]isoquinolin-9-yl)ethyl)amino)benzoic acid]",> 6.00
16,"Cc1cc(C(C)Nc2ccccc2C(=O)O)c2c(c1)c(=O)n(C)c1nn(C3CCOCC3)cc21 (centres unmarked) [Compound I-27, 2-((1-(4,7-Dimethyl-5-oxo-2-(tetrahydro-2H-pyran-4-yl)-4,5-dihydro-2H-pyrazolo[3,4-c]isoquinolin-9-yl)ethyl)amino)benzoic acid]",> 6.00
17,"Cc1cc(C(C)Nc2ccccc2C(=O)O)c2c(c1)c(=O)n(C)c1nn(CCc3ccccc3)cc21 (centres unmarked) [Compound I-28, 2-((1-(4,7-Dimethyl-5-oxo-2-phenethyl-4,5-dihydro-2/I-pyrazolo[3,4-c]isoquinolin-9-yl)ethyl)amino)benzoic acid]",> 6.00
18,"Cc1cc(C(C)Nc2ccccc2C(=O)O)c2c(c1)c(=O)n(C)c1nn(-c3ccnc(F)c3)cc21 (centres unmarked) [Compound I-29, 2-((1-(2-(2-Fluoropyridin-4-yl)-4,7-dimethyl-5-oxo-4,5-dihydro-2H-pyrazolo[3,4-c]isoquinolin-9-yl)ethyl)amino)benzoic acid]",> 6.00
19,"Cc1cc(C(C)Nc2ccccc2C(=O)O)c2c(c1)c(=O)n(C)c1nn(-c3cncnc3)cc21 (centres unmarked) [Compound I-30, 2-((1-(4,7-Dimethyl-5-oxo-2-(pyrimidin-5-yl)-4,5-dihydro-2H-pyrazolo[3,4-c]isoquinolin-9-yl)ethyl)amino)benzoic acid]",> 6.00
20,"Cc1cc(C(C)Nc2ccc(Cl)nc2C(=O)O)c2c(c1)c(=O)n(C)c1nn(-c3ccccc3C)cc21 (centres unmarked) [Compound I-31, 6-Chloro-3-((1-(4,7-dimethyl-5-oxo-2-(o-tolyl)-4,5-dihydro-2H-pyrazolo[3,4-c]isoquinolin-9-yl)ethyl)amino)picolinic acid]",> 6.00
21,"COc1ccc2c3c(C(C)Nc4ccccc4C(=O)O)cc(C)cc3c(=O)n(C)c2n1 (centres unmarked) [Compound I-32, 2-[1-(3-Methoxy-5,8-dimethyl-6-oxo-benzo[c][1,8]naphthyridin-10-yl)ethylamino]benzoic acid]",> 6.00
22,"Cc1cc(C(C)Nc2ccccc2C(=O)O)c2c(c1)c(=O)n(C)c1nc(N(C)C)ccc21 (centres unmarked) [Compound I-33, 2-[1-[3-(Dimethylamino)-5,8-dimethyl-6-oxo-benzo[c][1,8]naphthyridin-10-yl]ethylamino]benzoic acid]",> 6.00

# The next lines start with the values.
row,pIC50,SMILES
1,> 6.00,"COCCOc1ccc2c3c(C(C)Nc4ccccc4C(=O)O)cc(C)cc3c(=O)n(C)c2n1 (centres unmarked) [Compound I-34, 2-[1-[3-(2-Methoxyethoxy)-5,8-dimethyl-6-oxo-benzo[c][1,8]naphthyridin-10-yl]ethylamino]benzoic acid]"
2,> 6.00,"CC(Nc1ccccc1C(=O)O)c1cc(Cl)cc2c(=O)n(C)c3c(cnn3C)c12 (centres unmarked) [Compound I-35, 2-((1-(7-Chloro-3,4-dimethyl-5-oxo-4,5-dihydro-3H-pyrazolo[3,4-c]isoquinolin-9-yl)ethyl)amino)benzoic acid]"
3,> 6.00,"Cc1cc(C(C)Nc2ccccc2C(=O)O)c2c(c1)c(=O)n1c3c2cnn3CCC1 (centres unmarked) [Compound I-36, 2-((1-(8-Methyl-6-oxo-4,5-dihydro-3H,6H-2,2a,5a-triazaaceanthrylen-10-yl)ethyl)amino)benzoic acid]"
4,> 6.00,"Cc1cc(C(C)Nc2ccc(C)nc2C(=O)O)c2c(c1)c(=O)n1c3c2cnn3CCC1 (centres unmarked) [Compound I-37, 6-Methyl-3-((1-(8-methyl-6-oxo-4,5-dihydro-3H,6H-2,2a,5a-triazaaceanthrylen-10-yl)ethyl)amino)picolinic acid]"
5,> 6.00,"Cc1cc(C(C)Nc2ccccc2C(=O)O)c2c(c1)c(=O)n1c3c2cnn3C(C)CC1 (centres unmarked) [Compound I-38, 2-((1-(3,8-Dimethyl-6-oxo-4,5-dihydro-3H,6H-2,2a,5a-triazaaceanthrylen-10-yl)ethyl)amino)benzoic acid]"
6,> 6.00,"Cc1cc(C(C)Nc2ccc(Cl)nc2C(=O)O)c2c(c1)c(=O)n1c3c2cnn3C(C)CC1 (centres unmarked) [Compound I-39, 6-Chloro-3-((1-(3,8-dimethyl-6-oxo-4,5-dihydro-3H,6H-2,2a,5a-triazaaceanthrylen-10-yl)ethyl)amino)picolinic acid]"
7,> 6.00,"Cc1cc(C(C)Nc2ccc(Cl)nc2-c2cnn(C)c2)c2c(c1)c(=O)n(C)c1c2cnn1C1CCN(S(C)(=O)=O)CC1 (centres unmarked) [Example 183, 9-[1-[[6-chloro-2-(1-methylpyrazol-4-yl)-3-pyridyl]amino]ethyl]-4,7-dimethyl-3-(1-methylsulfonyl-4-piperidyl)pyrazolo[3,4-c]isoquinolin-5-one]"
8,> 6.00,"COC(=O)N1CCC(n2ncc3c4c(C(C)Nc5ccc(Cl)nc5-c5cnn(C)c5)cc(C)cc4c(=O)n(C)c32)CC1 (centres unmarked) [Example 184, methyl 4-[9-[1-[[6-chloro-2-(1-methylpyrazol-4-yl)-3-pyridyl]amino]ethyl]-4,7-dimethyl-5-oxo-pyrazolo[3,4-c]isoquinolin-3-yl]piperidine-1-carboxylate]"
9,> 6.00,"Cc1cc(C(C)Nc2ccc(Cl)nc2-c2cnn(C)c2)c2c(c1)c(=O)n(C)c1c2cnn1C1CCN(S(=O)(=O)C2CC2)CC1 (centres unmarked) [Example 185, 9-[1-[[6-chloro-2-(1-methylpyrazol-4-yl)-3-pyridyl]amino]ethyl]-3-(1-cyclopropylsulfonyl-4-piperidyl)-4,7-dimethyl-pyrazolo[3,4-c]isoquinolin-5-one]"
10,> 6.00,"Cc1cc(C(C)Nc2ccc(Cl)nc2-c2cnn(C)c2)c2c(c1)c(=O)n(C)c1c2cnn1C1CCN(C(=O)N(C)C)CC1 (centres unmarked) [Example 186, 4-(9-(1-((6-chloro-2-(1-methyl-1H-pyrazol-4-yl)pyridin-3-yl)amino)ethyl)-4,7-dimethyl-5-oxo-4,5-dihydro-3H-pyrazolo[3,4-c]isoquinolin-3-yl)-N,N-dimethylpiperidine-1-carboxamide]"
